US20240374739A1, “BILE ACID CONJUGATE” (Curtin University, priority 2021, published 2024)

Tests used:
[1] = test system: Neurodegenerated cells (perinatal tissue derived human stem cell model for Alzheimer's disease); assay: Lactate dehydrogenase (LDH) assay, in vitro model of Alzheimer's disease; format: cell-based; conditions: probucol 20 μM, SPQ 10 μM, HA-1 10 μM, rivastigmine 2 μM, 24 hours; compared to ND cells
Protocol: (§1) Perinatal tissue derived human stem cell model for Alzheimer's disease (AD) was prepared using proprietary protocols to test the effect of new drug entities. Drug treatment was for 24 h in all the assays.
LDH leakage is a well characterised marker of cellular membrane damage and increase in indicative of lactate deficit, is a hallmark of AD.

[2] = biological target: T1, Acetylcholinesterase (AChE) (Homo sapiens, UniProt P22303); assay: Acetylcholinesterase (AChE) activity, Amplex Red reagent-based assay, Alzheimer's disease model; format: cell-based; conditions: probucol 20 μM, SPQ 10 μM, HA-1 10 μM, rivastigmine 2 μM, 24 hours
T1 construct: We assayed for AChE activity and ACh release in control, neurodegenerated AD and drug treated AD cells; endogenous in cells; host or cells: neurodegenerated cells of a human stem cell AD model derived from perinatal tissue (amniotic membrane mesenchymal stem cells are named for the MTT assay)
Protocol: as §1
(§2) Acetylcholinesterase (AChE) that regulates hydrolysis of acetylcholine (ACh) in the brain, is an important target for treatment of Alzheimer's disease (AD), a feature of which is ACh deficiency. We assayed for AChE activity and ACh release in control, neurodegenerated AD and drug treated AD cells.

[3] = test system: Neurodegenerated cells (Alzheimer's disease model); assay: Acetylcholine (ACh) release, Amplex Red reagent-based assay, Alzheimer's disease model; format: cell-based, human; conditions: probucol 20 μM, SPQ 10 μM, HA-1 10 μM, rivastigmine 2 μM, 24 hours
Protocol: as §1, §2

[4] = test system: Neurodegenerated cells (Alzheimer's disease model); assay: Mitochondrial membrane potential by TMRE assay, Alzheimer's disease model; format: cell-based, human; conditions: AD model; probucol 20 μM, SPQ 10 μM, HA-1 10 μM, rivastigmine 2 μM, 24 hours
Protocol: as §1
Aβ plaques are sources of toxicity that lead to severe structural and functional abnormalities in mitochondria in Alzheimer's disease. For assessing the changes in the electrophysiology and functional changes in the mitochondrial membrane potential, we used TMRE (tetramethylrhodamine ethyl ester) for quantifying changes in mitochondrial membrane potential in live cells by fluorimetry.

[5] = test system: Neurodegenerated cells (Alzheimer's disease model); assay: Gene expression analysis by qRT-PCR for neuronal, cholinergic and AD associated markers; format: cell-based, human; conditions: 24 h drug treatment
Protocol: as §1
For determining the expression of genes involved in AD specific neurodegeneration and neuronal markers, we analysed BACE and chAT (AD and cholinergic markers) and synapsin 1 and neuropilin (neuronal markers).

[6] = test system: Neurodegenerated cells (Alzheimer's disease model); assay: Immunocytochemical localization of AD specific and neuronal markers; format: cell-based, human; conditions: fluorescence micrographs
Protocol: as §1
For further confirmation and protein localization of the AD specific neurodegenerative markers and neuronal markers, we performed immunolocalization for BACE1 and synapsin respectively.
Fluorescence micrographs of BACE1 positive neuronal cells were obtained and the effects of probucol, SPQ and HA-1 on neurodegeneration model were compared. […] In the AD model, as expected BACE1 accumulation is clearly pronounced.
In the case of synapsin 1, a disruption in expression of synapsin protein in ND cells was observed.

[7] = test system: Neurodegenerated cells (Alzheimer's disease model); assay: ROS (reactive oxygen species) assay, Alzheimer's disease model; format: cell-based, human; conditions: AD model
Protocol: as §1
(§3) Increase in oxidative stress is associated with accumulation of amyloid beta seen in the AD model. Increased oxidative stress and nitric oxide levels lead to apoptosis and evoke cytotoxic effects on neurons.

[8] = test system: Neurodegenerated cells (Alzheimer's disease model); assay: Greiss (nitric oxide) assay, Alzheimer's disease model; format: cell-based, human; conditions: AD model
Protocol: as §1, §3

[9] = test system: Neurodegenerated cells (Alzheimer's disease model); assay: Glutathione peroxidase / GSH activity, Alzheimer's disease model; format: cell-based, human; conditions: AD model; vs neurodegeneration
Protocol: as §1
Alzheimer's disease-related increase in oxidative stress is associated with decrease in the levels of brain antioxidant glutathione (GSH).
(Statistical analysis: results are expressed in mean±SD. One-way ANOVA followed by Dunnett's post hoc test was performed to compare all columns vs neurodegeneration (p<0.05; *p<0.05, **p<0.001, ***p<0.0001, ns=non-significant, n=3).)

[10] = test system: Neurodegenerated cells (perinatal tissue derived human stem cell model for Parkinson's disease); assay: Mitochondrial membrane potential by TMRE assay, Parkinson's disease model; format: cell-based; conditions: PD model; probucol 20 μM, SPQ 10 μM, HA-1 10 μM, L-Dopa 50 μM, 24 hours
Protocol: (§4) Perinatal tissue derived human stem cell model for Parkinson's disease (PD) was prepared using proprietary protocols to test the effect of new drug entities. Drug treatment was for 24 hours in all the assays.
Dysfunctional mitochondria and alterations in the mitochondrial membrane potential promote neurodegeneration seen in Parkinson's disease. For assessing the changes in mitochondrial membrane potential, we used TMRE (tetramethylrhodamine ethyl ester) to quantify the changes in live cells by fluorimetry.
Neurodegenerated cells were incubated with probucol (20 μM), SPQ (10 μM), HA-1 (10 μM) and L-Dopa (50 μM) for 24 hours (p<0.05; *p<0.05, **p<0.001, ***p<0.0001, ns=non-significant, n=3).

[11] = test system: Neurodegenerated cells (Parkinson's disease model); assay: Gene expression analysis by qRT-PCR for neuronal, dopaminergic and PD associated markers; format: cell-based, human; conditions: 24 hours drug treatment
Protocol: as §4
Gene expression levels of mature neuronal marker (Synapsin I), dopaminergic markers (Nuclear receptor related 1 (Nurr1), Dopamine transporter (DAT) and Tyrosine hydroxylase (TH)), and PD associated marker (α-synuclein) were analysed to determine the effect of probucol, SPQ, HA-1 and L-Dopa.
(A) Synapsin I, (B) Nurr1, (C) DAT, (D) TH and (E) α-synuclein. (p<0.05; *p<0.05, **p<0.001, ***p<0.0001, n=3).

[12] = test system: Neurodegenerated cells (Parkinson's disease model); assay: ROS assay, Parkinson's disease model; format: cell-based, human; conditions: PD model
Protocol: as §4
(§5) Increase in oxidative stress associated with accumulation of α-synuclein plays a central role in disease progression. Nitric oxide enhances the aggregation of α-synuclein and accelerates disease progression. Increased oxidative stress and nitric oxide levels lead to apoptosis and evoke cytotoxic effects on neurons.

[13] = test system: Neurodegenerated cells (Parkinson's disease model); assay: Greiss (nitric oxide) assay, Parkinson's disease model; format: cell-based, human; conditions: PD model
Protocol: as §4, §5

[14] = test system: Neurodegenerated cells (Parkinson's disease model); assay: Glutathione peroxidase / GSH activity, Parkinson's disease model; format: cell-based, human; conditions: PD model; vs neurodegeneration
Protocol: as §4
Parkinson's disease-related increase in oxidative stress is associated with mitochondrial dysfunction and subsequent decrease in the levels of brain antioxidant glutathione (GSH).
(Statistical analysis: Results are expressed in mean±SD. One-way ANOVA followed by Dunnett's post hoc test was performed to compare all columns vs neurodegeneration (p<0.05; *p<0.05, **p<0.001, ***p<0.0001, ns=non-significant, n=3).)

T1 sequence (P22303 32-614): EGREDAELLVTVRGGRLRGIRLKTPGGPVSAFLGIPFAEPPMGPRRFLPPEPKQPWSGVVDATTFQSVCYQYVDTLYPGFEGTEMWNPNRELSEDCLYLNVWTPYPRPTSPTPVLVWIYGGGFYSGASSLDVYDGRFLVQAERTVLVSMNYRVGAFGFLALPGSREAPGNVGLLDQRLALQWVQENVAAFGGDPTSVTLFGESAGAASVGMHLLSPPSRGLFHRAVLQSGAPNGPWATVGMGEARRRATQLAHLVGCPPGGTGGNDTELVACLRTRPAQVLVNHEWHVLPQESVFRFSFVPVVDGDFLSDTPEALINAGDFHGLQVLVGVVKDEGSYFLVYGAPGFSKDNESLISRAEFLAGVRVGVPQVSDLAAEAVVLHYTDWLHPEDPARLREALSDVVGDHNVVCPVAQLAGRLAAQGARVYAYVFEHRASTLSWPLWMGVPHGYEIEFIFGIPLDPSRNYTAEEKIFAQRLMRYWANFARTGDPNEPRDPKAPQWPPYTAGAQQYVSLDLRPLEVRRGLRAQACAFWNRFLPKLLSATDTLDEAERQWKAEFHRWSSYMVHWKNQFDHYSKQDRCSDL

CC(=O)O[C@@H]1CC[C@@]2(C)[C@H](CC[C@@H]3[C@@H]2CC[C@]2(C)[C@@H]([C@H](C)CCC(=O)Oc4c(C(C)(C)C)cc(SC(C)(C)Sc5cc(C(C)(C)C)c(O)c(C(C)(C)C)c5)cc4C(C)(C)C)CC[C@@H]32)C1 [HA-1, 2,6-di-tert-butyl-4-((2-((3,5-di-tert-butyl-4-hydroxyphenyl)thio)propan-2-yl)thio)phenyl (4R)-4-[(3R,5R,8R,9S,10S,13R,14S,17R)-3-acetoxy-10,13-dimethyl-2,3,4,5,6,7,8,9,11,12,14,15,16,17-tetradecahydro-1H-cyclopenta[a]phenanthren-17-yl]pentanoate]
LDH activity / LDH release [1]: decreased significantly LDH activity | Acetylcholinesterase (AChE) activity [2]: inhibition of acetylcholinesterase (AChE) similar to rivastigmine | Acetylcholine (ACh) release / level [3]: increase/maintain the level of acetylcholine (ACh) | mitochondrial membrane potential (TMRE) [4]: maintain the mitochondrial membrane potential | BACE1 gene expression (qRT-PCR) [5]: decrease the level of beta secretase 1 (BACE1) | ChAT gene expression (qRT-PCR) [5]: increase the level of choline acetyltransferase (ChAT) | neuropilin gene expression (qRT-PCR) [5]: increased | synapsin 1 (Syn) gene expression (qRT-PCR) [5]: increased | accumulation of BACE1 protein (immunolocalization) [6]: least expression | synapsin 1 protein expression (immunolocalization) [6]: clear reversal of degeneration | intracellular reactive oxidative stress (ROS) [7]: decrease the level of ROS | nitric oxide level [8]: prevent the reduction of endogenous nitric oxide level | glutathione (GSH) activity [9]: increase in the anti-oxidant GSH activity | mitochondrial membrane potential (TMRE) [10]: maintain the mitochondrial membrane potential | DAT gene expression (qRT-PCR) [11]: increase the expression of all the dopaminergic markers tested | Nurr1 gene expression (qRT-PCR) [11]: increase the expression of all the dopaminergic markers tested | TH gene expression (qRT-PCR) [11]: increase the expression of all the dopaminergic markers tested | α-synuclein gene expression (qRT-PCR) [11]: decreased expression of α-synuclein | intracellular reactive oxidative stress (ROS) [12]: decrease the level of ROS | nitric oxide level [13]: prevent the reduction of endogenous nitric oxide levels | glutathione (GSH) activity [14]: increase in the GSH activity

CC1(C)SC2(C=C(C(C)(C)C)C(=O)C(C(C)(C)C)=C2)C2(C=C(C(C)(C)C)C(=O)C(C(C)(C)C)=C2)S1 [SPQ, 2,4,9,11-tetrakis(1,1-dimethylethyl)-14,14-dimethyl-13,15-dithiadispiro[5.0.5.3]pentadeca-1,4,8,11-tetraene-3,10-dione]
LDH activity / LDH release [1]: decreased significantly LDH activity | Acetylcholinesterase (AChE) activity [2]: inhibition of acetylcholinesterase (AChE) similar to rivastigmine | Acetylcholine (ACh) release / level [3]: increase/maintain the level of acetylcholine (ACh) | mitochondrial membrane potential (TMRE) [4]: maintain the mitochondrial membrane potential | BACE1 gene expression (qRT-PCR) [5]: decrease the level of beta secretase 1 (BACE1) | ChAT gene expression (qRT-PCR) [5]: increase the level of choline acetyltransferase (ChAT) | neuropilin gene expression (qRT-PCR) [5]: increased | synapsin 1 (Syn) gene expression (qRT-PCR) [5]: increased | synapsin 1 protein expression (immunolocalization) [6]: clear reversal of degeneration | intracellular reactive oxidative stress (ROS) [7]: decrease the level of ROS | nitric oxide level [8]: prevent the reduction of endogenous nitric oxide level | glutathione (GSH) activity [9]: increase in the anti-oxidant GSH activity | mitochondrial membrane potential (TMRE) [10]: enhanced restoration of the mitochondrial membrane potential | DAT gene expression (qRT-PCR) [11]: significantly increased | Synapsin I gene expression (qRT-PCR) [11]: significantly increased | TH gene expression (qRT-PCR) [11]: significantly increased | α-synuclein gene expression (qRT-PCR) [11]: decreased expression of α-synuclein | intracellular reactive oxidative stress (ROS) [12]: decrease the level of ROS | nitric oxide level [13]: prevent the reduction of endogenous nitric oxide levels | glutathione (GSH) activity [14]: increase in the GSH activity

CC(C)(Sc1cc(C(C)(C)C)c(O)c(C(C)(C)C)c1)Sc1cc(C(C)(C)C)c(O)c(C(C)(C)C)c1 [probucol, 2,6-ditert-butyl-4-[2-(3,5-ditert-butyl-4-hydroxyphenyl)sulfanylpropan-2-ylsulfanyl]phenol]
LDH activity / LDH release [1]: decreased significantly LDH activity | Acetylcholinesterase (AChE) activity [2]: inhibition of acetylcholinesterase (AChE) similar to rivastigmine | Acetylcholine (ACh) release / level [3]: increase/maintain the level of acetylcholine (ACh) | mitochondrial membrane potential (TMRE) [4]: maintain the mitochondrial membrane potential | BACE1 gene expression (qRT-PCR) [5]: decrease the level of beta secretase 1 (BACE1) | ChAT gene expression (qRT-PCR) [5]: increase the level of choline acetyltransferase (ChAT) | neuropilin gene expression (qRT-PCR) [5]: increased | synapsin 1 (Syn) gene expression (qRT-PCR) [5]: increased | synapsin 1 protein expression (immunolocalization) [6]: clear reversal of degeneration | intracellular reactive oxidative stress (ROS) [7]: decrease the level of ROS | nitric oxide level [8]: prevent the reduction of endogenous nitric oxide level | glutathione (GSH) activity [9]: increase in the anti-oxidant GSH activity | mitochondrial membrane potential (TMRE) [10]: maintain the mitochondrial membrane potential | TH gene expression (qRT-PCR) [11]: clearly upregulated | α-synuclein gene expression (qRT-PCR) [11]: decreased expression of α-synuclein | intracellular reactive oxidative stress (ROS) [12]: decrease the level of ROS | nitric oxide level [13]: prevent the reduction of endogenous nitric oxide levels | glutathione (GSH) activity [14]: increase in the GSH activity
